Results on 9 compounds are retold here after PubChem BioAssay (NCI).

Holding throughout (assay): inhibition of tumour cell growth, NCI panel, 48 h
For experiment [1], the system named is DU-145 prostate.
In experiment [2] the test system is HCT-15 colon.
Experiment [3] has as its system HCT-116 colon.
The test system of experiment [4] is SF-295 CNS.
Experiment [5] deals with NCI-H522 lung.
Experiment [6] has as its system OVCAR-3 ovarian.
For experiment [7], the system named is CAKI-1 renal.
In experiment [8] the test system is EKVX NSCLC.
Experiment [9] concerns MOLT-4 leukemia.
Experiment [10] relates to A549 NSCLC.

Each structure is given as a SMILES string. “And” between values parts separate entries of the source, which are not always exact repeats. Equal values may be shown once.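 Five compound concentrations were applied to cells in 96-well plates for 48 hours; endpoints were derived by simple linear interpolation of the resulting dose-response curve. GI50: concentration for 50% inhibition of growth. The concentration for full growth arrest is given as TGI.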 Where only a bound is given, the exact number is not on record here.

As for `COc1ccccc1[As]=[As]c1ccccc1OC` (centres undefined), the GI50 is 0.0542 µM in [1]; 0.0288 µM in [2]; 0.0245 µM in experiment [3]; 0.104 µM in [4]; 0.0165 µM in experiment [5]; 0.0234 µM in [6]. Also, the GI50 in [7] is 0.066 µM; in experiment [8] it was 0.12 µM; in experiment [9] it was 0.0382 µM; in experiment [10], 0.0973 µM. In addition, the TGI is 0.173 µM in [1]; 0.118 µM in experiment [2]; 0.0641 µM in [3]; 0.264 µM in experiment [4]; 0.0376 µM in experiment [5]; 0.0531 µM in experiment [6]. Also, the TGI in [7] turned out to be 0.202 µM; in experiment [8], 0.271 µM; in experiment [9] it was 0.204 µM; in experiment [10] it was 0.289 µM.
For `Oc1ccc(C(O)(c2ccccc2)c2ccccc2)c2ccccc12`, the TGI came out at 14 µM in [1]; 2.9 µM in experiment [2]; 10.7 µM in [3]; 8.19 µM in experiment [4]; 7.17 µM in [5]; 3.93 µM in experiment [6]. The TGI in experiment [7] is 11.1 µM; in experiment [8] it was 26.4 µM; in experiment [9] it was greater than 100 µM; in [10], 11.9 µM.
For `CCN(CC)CCN1c2nc3ccccc3cc2Sc2cc3ccccc3nc21`, the GI50 is 3.59 µM in [1]; 1.58 µM in [2]; 1.4 µM in [3]; 1.56 µM in experiment [4]; 1.65 µM in experiment [5]; 1.85 µM in experiment [6]. Besides, the GI50 was 1.8 µM in experiment [7], 4.49 µM in experiment [8], 2.31 µM in experiment [9] and 2.34 µM in [10]. The TGI in experiment [1] was 11.3 µM; in experiment [2] it was 3.76 µM; in experiment [3], 2.78 µM; in experiment [4], 3.45 µM; in experiment [5], 4.1 µM; in [6], 4.9 µM. The TGI in experiment [7] came out at 6.11 µM; in [8] it was 17.9 µM; in experiment [9], 6.6 µM; in [10] it was 6.12 µM.
On to `CCOc1ccc(C(C[N+](=O)[O-])Sc2ccccc2N)cc1` (centres undefined), for which the GI50 in experiment [1] was 4.17 µM; in experiment [2], 2.01 µM; in experiment [3], 1.7 µM; in experiment [4], 4.39 µM; in [5], 11.8 µM; in [6], 2.92 µM. Also, the GI50 is 12.9 µM in experiment [7], 14.8 µM in [8], 3.73 µM in experiment [9] and 7.82 µM in experiment [10]. For the same compound, the TGI in [1] came to 15 µM; in experiment [2], 4.75 µM; in experiment [3], 3.36 µM; in experiment [4] it was 17.3 µM; in experiment [5], 24.9 µM; in [6] it was 12 µM. Besides, the TGI in [7] came to 25.6 µM; in experiment [8], 30 µM; in experiment [9], 16.9 µM; in [10], 23 µM.
Take `CC(=O)Nc1ccc(S(=O)(=O)N=S(C)C)cc1`: the TGI in experiment [1], in [2], in [3], in experiment [4], in experiment [5] and in [6] was greater than 100 µM each time. For the same compound, the TGI in experiment [7], in [8], in experiment [9] and in experiment [10] was greater than 100 µM throughout.
For the compound `C=C1C(=O)O[C@H]2[C@H]1CC/C(COC(=O)/C=C\C(=O)NCc1ccc(Cn3c(=O)sn(CCI)c3=O)cc1)=C\CC[C@@]1(C)O[C@@H]21`, the GI50 in experiment [1] was 3.61 µM; in [2] it was 2.1 µM; in experiment [3] it was 1.93 µM; in [4], 18.9 µM; in experiment [5] it was 1.48 µM; in experiment [6] it was 1.76 µM. The GI50 in experiment [7] was 1.66 µM; in experiment [8] it was 4.7 µM; in [9] it was 2.24 µM; in [10], 14.8 µM. Besides, the TGI was 13.2 µM in [1]; 5.42 µM in experiment [2]; 4.75 µM in experiment [3]; 33.4 µM in experiment [4]; 2.93 µM in experiment [5]; 3.24 µM in experiment [6]. Also, the TGI in [7] was found to be 3.03 µM; in experiment [8] it was 20.2 µM; in experiment [9], 6.32 µM; in [10], 30.5 µM.
For `NC(Cc1c[nH]c2ccc([N+](=O)[O-])cc12)C(=O)O` (centres undefined), the TGI in experiment [1], in experiment [2], in experiment [3], in experiment [4], in experiment [5] and in experiment [6] was greater than 100 µM each time. The TGI in [7], in experiment [8], in [9] and in experiment [10] was greater than 100 µM throughout.
With `CCCCCCCCCCNCCSS(=O)(=O)O`, the GI50 was 1.82 µM in experiment [1]; 3.97 µM in [2]; 2.01 µM in experiment [3]; 1.83 µM in experiment [4]; 2.09 µM in experiment [5]; 1.98 µM in experiment [6]. For the same compound, the GI50 is 14.5 µM in [7], 4.14 µM in experiment [8], 2.06 µM in experiment [9] and 2.1 µM in experiment [10]. The TGI in experiment [1] is 3.28 µM; in experiment [2], 17 µM; in experiment [3], 3.85 µM; in experiment [4], 3.65 µM; in [5] it was 4.31 µM; in [6], 3.46 µM. The TGI amounted to 33.3 µM in [7], 19.2 µM in [8], 4.92 µM in experiment [9] and 5.27 µM in experiment [10].
With `O=C1NC2(CCCCC2)C(=O)N1CCN(CCCl)CCCl`, the TGI is greater than 25 µM in experiment [1]; greater than 242 µM in [2]; greater than 250 µM in experiment [3]; greater than 250 µM in [4]; > 25 µM and 163 µM in experiment [5]; greater than 250 µM in experiment [6]. The TGI was 25 µM and 175 µM in experiment [7]; greater than 250 µM in experiment [8]; 22.5 µM and 196 µM in experiment [9]; greater than 250 µM in experiment [10]. Further, the GI50 in [2] is > 25 µM and 200 µM; in experiment [3] it was greater than 25 µM; in [4], > 25 µM and 138 µM; in experiment [5] it was greater than 25 µM; in experiment [6], greater than 244 µM; in experiment [7] it was 19.5 µM. Further, the values for the GI50 in [8], in [9] and in [10] were greater than 25 µM, 7.1 µM and greater than 25 µM, respectively.
